# System: chronic low back pain
# Test: Treatment of low back pain (herniated disc, lumbar spinal canal stenosis), single-subject case
# Format: in vivo, human
# Settings: person, before the composition
# From the text: The acute pain was managed by a combination of pain killer medication and a series of physical therapies at that time. However, chronic low back pain remained ever since. […] The patient was also subjected to a series of disc decompression treatments (20 treatment sessions).
# No medication and other treatment were applied prior to taking the composition of the present invention. Two pills (0.5 g each) of the composition of the present invention were taken by the patient every morning and at night (twice a day). Each pill was composed of Rhizoma Gastrodiae Elatae (˜30-60 mg), dry powder of Manitis (˜70-105 mg), dry powder of Agkistrodon seu Bungarus (˜25-40 mg), roots of Radix Aconiti Lateralis Preparata (˜50-90 mg) and Radix Paeoniae Lactiflorae (˜50-90 mg), Herba Asari cum Radice (˜25-40 mg), Cornu cervi Parvum (˜70-100 mg), Eupolyphaga seu Opisthoplatia (˜25-45 mg), and Sulindac (30 mg). Total daily dosage of Sulindac was 120 mg, which is lower than recommended dosage (400 mg/day). Sulindac is a NSAID for the treatment of arthritis, but not proposed for the treatment of sciatica nerve pain.
smiles,measurement,value
Cc1ccc(-c2cc(C(F)(F)F)nn2-c2ccc(S(N)(=O)=O)cc2)cc1 [Celebrex],pain reduction by earlier prescribed medication,not effective in reducing the pain

# From patent US20080220084A1, “COMBINATION THERAPY FOR ALLEVIATING PAIN-RELATED CONDITIONS” (Pfantastic Medical Research Institute, LLC, priority 2007, published 2008)
